Test results published in US9592217B2, “Method for treating skin inflammatory diseases” (Olatec Therapeutics LLC, priority 2012, dated 2017).
Like-named read-outs stand apart in the source and are kept apart here.

How the values were obtained:
Type in all cases: in vivo
[1] = test system: arachidonic acid induced ear swelling; experiment: Topical arachidonic acid induced ear swelling model in mice; conditions: 30 min before and 15 min after arachidonic acid, measured at 90 minutes
Procedure: Purified 3-methanesulfonylpropionitrile was dissolved in vehicle (ethanol/acetone 1:1) to 5% (w/v). The active compound, indomethacin (positive control in vehicle), and vehicle were topically applied to mice and evaluated for anti-inflammatory activity in the topical arachidonic acid induced ear swelling model in mice, which is a model of irritant contact dermatitis.
Male ICR mice weighing 22±2 g were used and randomly divided; each group had 10 mice. Arachidonic Acid (0.5 mg in 20 μl of acetone:ethanol/1:1) was applied topically to the anterior and posterior surfaces of the right ear of each mice. Test substance and vehicle, as listed in Table 3 were similarly applied 30 min before and 15 min after arachidonic acid application. The thickness of the right ear and the left ear was measured and the difference calculated as an indication of the inflammation in the right ear. Ear swelling was measured by a Dyer model micrometer gauge at 60 and 90 minutes after arachidonic acid application as an index of inflammation. Percent inhibition was calculated according to the formula: Ic−It/Ic×100, where Ic and It refers to increase of ear thickness (mm) in control and treated mice, respectively. ANOVA and Dunnett's test were employed to ascertain significant difference between vehicle control and treated groups. Significance is set at P<0.05 level.

[2] = Systemic (plasma) exposure after oral and subcutaneous administration to rats
Procedure: This study was done to determine the systemic (plasma) exposure of MSPN after administration by the oral and subcutaneous routes to rats.
MSPN substance was prepared in water for oral administration and in saline for subcutaneous administration. Rats weighed 282 to 295 g were used in the study. Male rats (n=2) were given a single dose at 50, 160 or 500 mg/kg by both oral and subcutaneous routes. Female rats (n=2) were dosed only at 500 mg/kg by both oral and subcutaneous routes. The blood was drawn from each rat at 0.25, 1, 2, 3, 4, 6, 12, 24, and 48 hours and measured for MSPN concentration by LC/MS/MS.

rats = experiment: Oral systemic toxicity in rats
dogs = experiment: Oral systemic toxicity in dogs
[3] = decreased body temperature, decreased respiratory rate, increased blood pressure, increased heart rate

| Structure (SMILES) | % Inhibition of ear swelling ([1]; (0.5% w/v), 0.1 mg/20 μL) [%] | % Inhibition of ear swelling ([1]; 375 mM (5% w/v), 1 mg/20 μL) [%] | Cmax ([2]; rat, plasma, 500 mg/kg, heading: average maximum plasma concentration, male rats, oral, single dose 500 mg/kg, read-out: average maximum plasma concentration (Cmax)) [µg/mL] | Cmax ([2]; rat, plasma, sc, 500 mg/kg, heading: average Cmax, female rats, subcutaneous, single dose 500 mg/kg, read-out: average Cmax) [µg/mL] | Cmax ([2]; rat, plasma, sc, male rats, subcutaneous, single dose 50 mg/kg, read-out: average maximum plasma concentration (Cmax)) [µg/mL] | Cmax ([2]; rat, plasma, sc, male rats, subcutaneous, single dose 160 mg/kg, read-out: average maximum plasma concentration (Cmax)) [µg/mL] | Cmax ([2]; rat, plasma, sc, male rats, subcutaneous, single dose 500 mg/kg, read-out: average maximum plasma concentration (Cmax)) [µg/mL] | Cmax ([2]; rat, plasma, female rats, oral, single dose 500 mg/kg, read-out: average Cmax) [µg/mL] | Cmax ([2]; rat, plasma, male rats, oral, single dose 50 mg/kg, read-out: average maximum plasma concentration (Cmax)) [µg/mL] | Cmax ([2]; rat, plasma, male rats, oral, single dose 160 mg/kg, read-out: average maximum plasma concentration (Cmax)) [µg/mL] | half-life ([2]; rat, plasma, rats, both routes (oral, subcutaneous) and both sexes, read-out: Half-lives) [h] | bioavailability ([2]; rats, after both the oral and subcutaneous routes) | doses at which effects were seen, relative to expected human therapeutic doses (rats) | effects seen after oral, systemic toxicity administration (rats; [3]) | doses at which effects were seen, relative to expected human therapeutic doses (dogs) | effects seen after oral, systemic toxicity administration (dogs; [3]) |
| --- | --- | --- | --- | --- | --- | --- | --- | --- | --- | --- | --- | --- | --- | --- | --- | --- |
| COc1ccc2c(c1)c(CC(=O)O)c(C)n2C(=O)c1ccc(Cl)cc1 [Indomethacin, indomethacin, reference compound] | 53 |  |  |  |  |  |  |  |  |  |  |  |  |  |  |  |
| CS(=O)(=O)CCC#N [MSPN, 3-methanesulfonylpropionitrile] |  | 36 | 12 | 9.5 | 160 | 760 | 3300 | 3800 | 160 | 560 | 8 to 15 | significant bioavailability | over 2000 fold | mild physiological effects | over 2000 fold | mild physiological effects |
